Earlier results as cited in US20200237920A1, “STABLE INJECTABLE PHARMACEUTICAL COMPOSITION OF NEUROKININ 1 RECEPTOR ANTAGONIST AND PROCESS FOR PREPARATION THEREOF” (PHARMATHEN S.A., priority 2012, published 2020).

Experiments:
[1] = tested on: serotonin, dopamine or corticosteroid receptors

| affinity for serotonin, dopamine or corticosteroid receptors (in words) [1] | Compound | solubility in water (in words) |
| --- | --- | --- |
| little or no affinity | C[C@@H](O[C@H]1OCCN(Cc2n[nH]c(=O)[nH]2)[C@H]1c1ccc(F)cc1)c1cc(C(F)(F)F)cc(C(F)(F)F)c1 [Aprepitant] | – |
| – | CNC[C@H](O)[C@@H](O)[C@H](O)[C@H](O)CO.CNC[C@H](O)[C@@H](O)[C@H](O)[C@H](O)CO.C[C@@H](O[C@H]1OCCN(Cc2nn(P(=O)(O)O)c(=O)[nH]2)[C@H]1c1ccc(F)cc1)c1cc(C(F)(F)F)cc(C(F)(F)F)c1 [Fosaprepitant Dimeglumine] | freely soluble in water |
